Results on two compounds are retold here after patent publication USRE40259E1, “Alpha-aminoamide derivatives useful as analgesic agents” (Newron Pharmaceuticals, S.p.A., priority 1997, dated 2008).

Marks after values point to notes of the source that are not given here.

What all share (assay type): in vivo
Series [1] deals with mice. Description: Locomotor activity test. The conditions noted are these: for Locomotor activity counts (mean ± sem): 60 min before test, 15 min test, mice; for Effect on locomotor activity: 7.5-60.0 mg/kg po, result in words. The protocol: (§1) The effects of these compounds on locomotor activity and rotarod (a test for evaluating motor co-ordination) were studied in order to exclude changes in these parameters as confounding factors in the evaluation of the formalin response. The locomotor activity test lasted 15 min. Five minutes after testing locomotor activity, the mice were put on the rotarod for 2 min and the number of mice falling within this time were counted. Compounds PNU 151774E and PNU 156654E were tested at the doses of 7.5, 15.0, 30.0 and 60.0 mg/kg; po. The compounds were administered 60 min before locomotor activity test.

Another series concerns Male NMRI CD-1 mice. Description: Formalin test (formalin nociception test in mice). The conditions noted are these: for Licking time, Acute phase / Licking time, Chronic phase: 60 min before formalin, mice; for Licking time, Acute phase: acute phase 0-5 min; for Licking time, Chronic phase: chronic phase 30-40 min; for Effect on cumulative licking time in both phases of the formalin test: 7.5-60.0 mg/kg po, result in words. An excerpt: Formalin test is a useful tool for obtaining neurogenic inflammation and continuous pain (Shibata et al, Pain, 38: 347-352, 1989).
Formalin produces a distinct biphasic response. The early phase seems to be caused predominantly by C-fibre activation due to peripheral stimulus, while the late phase appears to be dependent on the combination of an inflammatory reaction in the peripheral tissue and functional changes in the dorsal horn of the spinal cord. This functional changes seem to be initiated by the C-fibre barrage during the early phase (Tjolsen et al. Pain 51, 5-17, 1992). Substance P and bradykinin participate in the early phase, while histamine, serotonin, prostaglandins and bradykinin are involved in the late phase.
Male NMRI CD-1 mice (22-25 g) were injected with […] μl of 2.7% solution of formalin into the right hindpaw and placed immediately into observation chambers. The cumulative licking time of the injected paw was recorded in the acute phase (0-5 min) and in the chronic phase (30-40 min) of the nociceptive response of formalin.
The two representative compounds of the invention (S)-2-[4-(3- fluorobenzyloxy)benzylamino]-propanamide, methanesulfonate (internal code PNU 151774E) and (S)-[2-[4-(3-fluorobenzyloxy)benzylamino]-2-methyl-propanamide […] were administered 60 min before formalin injection at the doses of 7.5, 15.0, 30.0 and 60.0 mg/kg; po. Morphine (5 mg/kg; sc) was used as a positive standard. The activities data were analysed by Dunnett's t-test.

Series [2] has as its system mice. As to the kind of experiment: Rotarod (motor co-ordination). The conditions noted are these: for Rotarod co-ordination (mice fallen/total mice): 2 min on rotarod; for Effect on rotarod activity: 7.5-60.0 mg/kg po, result in words. The protocol:
as §1

In the case of `C[C@H](NCc1ccc(OCc2cccc(F)c2)cc1)C(N)=O` [PNU 151774E, (S)-2-[4-(3-fluorobenzyloxy)benzylamino]-propanamide, methanesulfonate], the “Locomotor activity counts (mean ± sem)” value in the series on mice [1] (7.5 mg/kg po) came out at 2908 ± 234 counts; with mice [1] (15 mg/kg po) it was 2795 ± 255 counts; in the series on mice [1] (30 mg/kg po), 2347 ± 203 counts; with mice [1] (60 mg/kg po), 2240 ± 195 counts. Besides, in the series with mice [1], the “Effect on locomotor activity” value is reported as “without any effect”. For the same compound, the “Licking time, Acute phase” value with Male NMRI CD-1 mice (7.5 mg/kg po) is 137.9 ± 2.4^a sec; in the series with Male NMRI CD-1 mice (15.0 mg/kg po) it was 87.9 ± 3.3^a sec; in the series with Male NMRI CD-1 mice (30.0 mg/kg po), 79.4 ± 3.0^a sec; with Male NMRI CD-1 mice (60.0 mg/kg po), 63.1 ± 2.6^a sec. Besides, the “Licking time, Chronic phase” value in the series with Male NMRI CD-1 mice (7.5 mg/kg po) is 72.4 ± 2.4^ sec; in the series on Male NMRI CD-1 mice (15.0 mg/kg po) it was 64.3 ± 2.8^b sec; in the series with Male NMRI CD-1 mice (30.0 mg/kg po), 56.9 ± 2.6^a sec; with Male NMRI CD-1 mice (60.0 mg/kg po) it was 38.1 ± 3.6^a sec. Further, the “Effect on cumulative licking time in both phases of the formalin test” value in the series with Male NMRI CD-1 mice is listed as “dose-dependently reduced cumulative licking time in both phases”. In addition, the “Rotarod co-ordination (mice fallen/total mice)” value in the series on mice [2] (7.5 mg/kg po), with mice [2] (15 mg/kg po), with mice [2] (30 mg/kg po) and with mice [2] (60 mg/kg po) was 0/10 throughout. Further, in the series on mice [2], the “Effect on rotarod activity” value is given as “without any effect”.
Regarding `CC(C)(NCc1ccc(OCc2cccc(F)c2)cc1)C(N)=O` [PNU 156654E, 2-[4-(3-fluorobenzyloxy)benzylamino]-2-methyl-propanamide], the “Locomotor activity counts (mean ± sem)” value came out at 1966 ± 188 counts in the series with mice [1] (7.5 mg/kg po), 2110 ± 256 counts in the series with mice [1] (15 mg/kg po), 2272 ± 317 counts with mice [1] (30 mg/kg po) and 2119 ± 310 counts in the series with mice [1] (60 mg/kg po). The “Effect on locomotor activity” value with mice [1] is given as “without any effect”. Further, the “Licking time, Acute phase” value with Male NMRI CD-1 mice (7.5 mg/kg po) is given as 108.4 ± 4.2^ sec; in the series on Male NMRI CD-1 mice (15.0 mg/kg po), 79.7 ± 3.7^a sec; in the series on Male NMRI CD-1 mice (30.0 mg/kg po) it was 60.0 ± 2.3^a sec; in the series with Male NMRI CD-1 mice (60.0 mg/kg po) it was 44.4 ± 4.2^a sec. Besides, the “Licking time, Chronic phase” value with Male NMRI CD-1 mice (7.5 mg/kg po) is recorded as 62.4 ± 3.6^ sec; in the series with Male NMRI CD-1 mice (15.0 mg/kg po), 42.1 ± 6.2^a sec; with Male NMRI CD-1 mice (30.0 mg/kg po), 37.7 ± 6.9^a sec; with Male NMRI CD-1 mice (60.0 mg/kg po) it was 17.3 ± 6.6^a sec. In addition, the “Effect on cumulative licking time in both phases of the formalin test” value with Male NMRI CD-1 mice is listed as “dose-dependently reduced cumulative licking time in both phases”. Besides, the “Rotarod co-ordination (mice fallen/total mice)” value in the series on mice [2] (7.5 mg/kg po), in the series with mice [2] (15 mg/kg po), with mice [2] (30 mg/kg po) and in the series with mice [2] (60 mg/kg po) was 0/10 each time. The “Effect on rotarod activity” value with mice [2] is “without any effect”.
